Assay results published in ChEMBL document CHEMBL1201862, “PubChem BioAssay data set” (2004).
Structures can show the parent of a compound that is named as a salt.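 Compound exposure: 48 hours, 5 concentrations, 96-well plates. The concentration for 50% growth inhibition is given as GI50.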 Calls of active or inactive are those of the source. Cut-off read from the data, not from the text of the source: active = GI50 up to about 1.1 µM and inactive = higher. Starred links: 1 amine or outer side, 2 acyl side, 3 side chain; linkers in the order of their positions; H or OH if unused. Non-standard residues stand in square brackets, D forms with d. Residues, ends and D or L forms follow the SMILES beside them. ξ: configuration not given here. Ile(3ξ) = CCC(C)[C@H](N)C(=O)O; X35 = C=CCC(O[*:1])C(=O)[*:2]; NMeV = CN[C@H](C(=O)O)C(C)C; NMeA = CN[C@@H](C)C(=O)O; βAla = NCCC(=O)O

Columns and labels:
Assay in all cases: NCI tumour cell line growth inhibition, 48 h
SNB-75 = tested on: SNB-75
SK-OV-3 = tested on: SK-OV-3
RXF 393 = tested on: RXF 393
ACHN = tested on: ACHN
OVCAR-8 = tested on: OVCAR-8
M14 = tested on: M14
NCI-H226 = tested on: NCI-H226
NCI-H522 = tested on: NCI-H522
UACC-62 = tested on: UACC-62
LOX IMVI = tested on: LOX IMVI
SF-268 = tested on: SF-268
HL-60 = tested on: HL-60
COLO 205 = tested on: COLO 205
U-251 = tested on: U-251
CAKI-1 = tested on: CAKI-1

Measured: GI50

CC(C)NC1CCCCC2c3ccccc3C12O (configuration not stated)
inactive: SNB-75 > 100 µM | SK-OV-3 > 100 µM | RXF 393 > 100 µM | ACHN > 100 µM | OVCAR-8 > 100 µM | M14 > 100 µM | NCI-H226 > 100 µM | NCI-H522 > 100 µM | UACC-62 > 100 µM | LOX IMVI > 100 µM | SF-268 > 100 µM | HL-60 > 100 µM | COLO 205 > 100 µM | U-251 > 100 µM

Nc1nc(Cl)c2ncn(CCCC(c3ccccc3)P(=O)(O)O)c2n1 (configuration not stated)
inactive: SNB-75 > 100 µM | SK-OV-3 > 100 µM | ACHN > 100 µM | OVCAR-8 > 100 µM | M14 > 100 µM | NCI-H522 > 100 µM | CAKI-1 > 100 µM | UACC-62 > 100 µM | LOX IMVI > 100 µM | SF-268 > 100 µM | HL-60 > 100 µM | COLO 205 > 100 µM | U-251 > 100 µM

C=CCC1OC(=O)CCNC(=O)[C@H](C)N(C)C(=O)[C@H](C(C)C)N(C)C(=O)[C@H](C(C)CC)NC(=O)[C@@H]2CCCN2C1=O (some centres not stated) (cyclo([Ile(3ξ)][NMeV][NMeA][βAla][X35]P))
inactive: SNB-75 > 21.1 µM | SK-OV-3 99.1 µM | RXF 393 > 100 µM | ACHN 27.9 µM | OVCAR-8 16.2 µM | M14 2.61 µM | NCI-H226 7.55 µM | CAKI-1 8.93 µM | UACC-62 4.08 µM | LOX IMVI 9.16 µM | SF-268 4.12 µM | HL-60 3.39 µM | COLO 205 5.14 µM | U-251 > 53 µM

CS(=O)(=O)Sc1ccc(Cl)cc1
inactive: SNB-75 3.21 µM | SK-OV-3 23.5 µM | RXF 393 7.89 µM | OVCAR-8 7.87 µM | M14 12.8 µM | NCI-H226 7.48 µM | NCI-H522 3.24 µM | CAKI-1 10.7 µM | LOX IMVI 3.36 µM | SF-268 1.63 µM | HL-60 4.42 µM | COLO 205 3.52 µM | U-251 2.84 µM

CCCCCCCCCCCc1c(O)c(=O)c2c(oc3c(=O)c(CCCCCCCCCCC)c(O)c(=O)c3n2-c2ccc(N(C)C)cc2)c1=O
inactive: SNB-75 23.7 µM | SK-OV-3 19.7 µM | RXF 393 25 µM | ACHN 20.7 µM | OVCAR-8 23.3 µM | M14 16.3 µM | NCI-H226 19.3 µM | NCI-H522 58.3 µM | CAKI-1 15.7 µM | UACC-62 18 µM | LOX IMVI 24.2 µM | SF-268 22.2 µM | HL-60 27.1 µM | COLO 205 20 µM | U-251 21.4 µM

CCN(CC)c1ccc(/N=C2\C=C(Cl)C(=O)c3ncccc32)c(C)c1
inactive: SNB-75 14.4 µM | SK-OV-3 31.3 µM | RXF 393 3.92 µM | ACHN 2.96 µM | OVCAR-8 4.08 µM | M14 2.9 µM | CAKI-1 3.33 µM | UACC-62 3.8 µM | LOX IMVI 5.15 µM | HL-60 1.86 µM | COLO 205 4.2 µM | U-251 4.88 µM

O=C(CCCCCCCCC(=O)OCCCn1cc(C(=O)NC(=O)OCc2ccccc2)c(=O)[nH]c1=O)OCCCn1cc(C(=O)NC(=O)OCc2ccccc2)c(=O)[nH]c1=O
inactive: SNB-75 54.1 µM | SK-OV-3 > 100 µM | RXF 393 > 100 µM | ACHN > 100 µM | OVCAR-8 > 100 µM | M14 > 100 µM | NCI-H226 > 100 µM | NCI-H522 > 100 µM | CAKI-1 > 100 µM | UACC-62 > 100 µM | LOX IMVI > 100 µM | SF-268 > 100 µM | HL-60 > 100 µM | COLO 205 > 100 µM | U-251 > 100 µM

NCc1cc(O)c(O)c(O)c1
inactive: SNB-75 > 100 µM | SK-OV-3 > 100 µM | RXF 393 > 100 µM | ACHN > 100 µM | OVCAR-8 > 100 µM | M14 > 100 µM | NCI-H226 > 100 µM | NCI-H522 > 100 µM | CAKI-1 > 100 µM | UACC-62 59.3 µM | LOX IMVI 34.8 µM | SF-268 > 100 µM | HL-60 80.7 µM | COLO 205 > 100 µM | U-251 > 100 µM

CCCCC[C@@H]1CCCC2NC(CCCCCO[Si](c3ccccc3)(c3ccccc3)C(C)(C)C)CCC21 (some centres not stated)
inactive: SNB-75 16 µM | SK-OV-3 21.8 µM | RXF 393 11.3 µM | ACHN 13.5 µM | OVCAR-8 17.1 µM | M14 14.1 µM | NCI-H226 18.7 µM | NCI-H522 15 µM | CAKI-1 15.4 µM | UACC-62 19.5 µM | LOX IMVI 12.2 µM | SF-268 17.9 µM | HL-60 8.71 µM | U-251 14.1 µM

CC1=NCCc2c1[nH]c1cc(O)ccc21 [HARMALOL HYDROCHLORIDE]
inactive: SNB-75 > 100 µM | SK-OV-3 > 100 µM | RXF 393 > 100 µM | ACHN > 100 µM | OVCAR-8 > 100 µM | M14 > 100 µM | NCI-H226 > 100 µM | CAKI-1 > 100 µM | UACC-62 > 100 µM | LOX IMVI > 100 µM | SF-268 > 100 µM | HL-60 > 100 µM | COLO 205 > 100 µM

CCCN(CCC)c1c([N+](=O)[O-])cc(C(=O)N(CC)CC)cc1[N+](=O)[O-]
inactive: SNB-75 21.3 µM | SK-OV-3 25.5 µM | RXF 393 17.4 µM | ACHN 25.5 µM | OVCAR-8 18.3 µM | M14 23.2 µM | NCI-H226 23 µM | NCI-H522 10.2 µM | CAKI-1 25.1 µM | UACC-62 17.7 µM | LOX IMVI 16 µM | SF-268 17.6 µM | HL-60 14 µM | COLO 205 18.1 µM | U-251 15.5 µM

CN(C)c1nc(Oc2nc(N(C)C)nc(N(C)C)n2)nc(N(C)C)n1
inactive: SNB-75 35.9 µM | SK-OV-3 > 100 µM | RXF 393 > 100 µM | ACHN > 100 µM | OVCAR-8 93.8 µM | M14 > 100 µM | NCI-H226 > 100 µM | NCI-H522 70.8 µM | CAKI-1 > 100 µM | UACC-62 > 100 µM | LOX IMVI > 100 µM | SF-268 > 100 µM | HL-60 52.5 µM | COLO 205 22.1 µM | U-251 75.2 µM

O=c1c(Sc2c(O)c3ccccc3c3ccccc3c2=O)c(O)c2ccccc2c2ccccc12
inactive: SNB-75 > 100 µM | SK-OV-3 > 100 µM | RXF 393 50.7 µM | ACHN 25.4 µM | OVCAR-8 45.3 µM | M14 46.6 µM | NCI-H522 13.4 µM | CAKI-1 80.4 µM | UACC-62 29.2 µM | LOX IMVI 25.1 µM | SF-268 20 µM | HL-60 15.6 µM | COLO 205 41.6 µM | U-251 18.7 µM

CC(C)S(=O)(=O)n1c(N)nc2ccc(/C(=N/O)c3ccccc3)cc21 [ENVIROXIME]
inactive: SNB-75 3.26 µM | SK-OV-3 22.4 µM | RXF 393 11.4 µM | ACHN 13.7 µM | OVCAR-8 30.3 µM | M14 17.9 µM | NCI-H226 4.63 µM | NCI-H522 17.2 µM | CAKI-1 14.2 µM | UACC-62 23.1 µM | SF-268 27.7 µM | HL-60 12.2 µM | COLO 205 17.5 µM | U-251 39.3 µM

COc1ccc(C2=NN(C(C)=O)c3nc4ccccc4nc3O2)cc1
inactive: SNB-75 6.28 µM | ACHN 24.4 µM | OVCAR-8 37.3 µM | NCI-H522 20.8 µM | UACC-62 61.4 µM | SF-268 31.3 µM | HL-60 > 100 µM | COLO 205 > 100 µM | U-251 18.9 µM

Clc1ccc(/N=N/c2nc3ccccc3nc2/N=N/c2ccc(Cl)cc2Cl)c(Cl)c1
inactive: SNB-75 22.9 µM | RXF 393 > 100 µM | ACHN 45.9 µM | OVCAR-8 > 100 µM | NCI-H226 > 100 µM | NCI-H522 60.1 µM | LOX IMVI > 100 µM | SF-268 > 100 µM | HL-60 31.5 µM | COLO 205 > 100 µM | U-251 > 100 µM

COCN/C(N)=N/C#N
inactive: SNB-75 > 100 µM | SK-OV-3 > 100 µM | RXF 393 > 100 µM | ACHN > 100 µM | OVCAR-8 > 100 µM | M14 > 100 µM | NCI-H226 > 100 µM | NCI-H522 > 100 µM | CAKI-1 > 100 µM | UACC-62 > 100 µM | SF-268 85.9 µM | HL-60 > 100 µM | COLO 205 21.7 µM | U-251 27.4 µM

O=C1NC2OCC(O)C(O)C2O1 (configuration not stated)
inactive: SNB-75 > 100 µM | SK-OV-3 > 100 µM | ACHN > 100 µM | OVCAR-8 > 100 µM | M14 > 100 µM | NCI-H522 > 100 µM | CAKI-1 > 100 µM | UACC-62 > 100 µM | LOX IMVI > 100 µM | SF-268 > 100 µM | HL-60 > 100 µM | COLO 205 > 100 µM | U-251 > 100 µM

CC(O)C1OC(n2ccc(=O)[nH]c2=O)CC1n1cncn1 (configuration not stated)
inactive: SK-OV-3 > 100 µM | RXF 393 > 100 µM | ACHN > 100 µM | OVCAR-8 > 100 µM | M14 > 100 µM | NCI-H226 11.8 µM | NCI-H522 > 100 µM | CAKI-1 > 100 µM | UACC-62 > 100 µM | LOX IMVI > 100 µM | SF-268 > 100 µM | HL-60 > 100 µM | COLO 205 > 100 µM | U-251 > 100 µM
